Reference: US20110217265A1, “Screening for Inhibitors of HCV Amphipathic Helix (AH) Function” (priority 2008, published 2011)

Key:
[1] = target: hERG (Homo sapiens, UniProt Q12809); test: hERG IC50
[2] = tested on: Huh7.5 cells; test: Alamar Blue cell viability assay; assay type: cell-based, human
Experimental: Antiviral Assays of Compounds. Subconfluent Huh7.5 cells were trypsinized and collected by centrifugation at 700 g for 5 min. The cells were then washed three times in ice-cold RNasefree PBS buffer (BioWhittaker) and resuspended at 1.5×10^7 cells·ml^−1 in PBS buffer. Wild-type FL-J6/JFH-5′C19Rluc2AUbi and Bart79I-luc RNAs for electroporation were generated by in vitro transcription of XbaI (FL-J6/JFH-5′C19Rluc2AUbi) and ScaI (Bart791-luc)-linearized DNA templates using the T7 MEGAscript kit (Ambion), followed by phenol-chloroform purification and DEPC water suspension, 5 μg of RNA were mixed with 400 μl of washed Huh7.5 cells in a 2-mm-gap cuvette (BTX) and immediately pulsed (0.82 kV (FL-J6/JFH-5′C19Rluc2AUbi) and 0.68 kV (Bart79I-luc), five […] pulses) with a BTX-830 electroporator. After 10 min recovery at 25° C., pulsed cells were diluted into 20 ml of pre-warmed growth medium. Cells from several electroporations were pooled to a common stock and seeded in 96-well plates (17,000-20,000 cells per well). After 24 hr, compounds were added to the cells and media changes were performed daily with fresh compounds. After 72 hr of treatment, cells were incubated for 2 hr at 37° C. in the presence of 10% Alamar Blue reagent (TREK Diagnostic Systems) to assess for cytotoxicity. […] The signal was normalized relative to untreated samples. Viral RNA replication was determined using Renilla (FL-J6/JFH-5′C19Rluc2AUbi) or firefly (Bart791-luc) luciferase assays, according to the manufacturer's (Promega) directions. The same samples subjected to the viability assay described below were analyzed in this assay. According to the manufacturer protocol, cells were washed with PBS buffer and shaken at room temperature for 15 min in 20 μl of lysis buffer. Reporter assays were performed directly in the wells of the culture plates by injecting 100 μl of the assay substrate into each well. Luminescence was measured over 10 seconds with a 2-second delay using a Berthold LB 96 V luminometer. Signal was normalized relative to untreated samples or samples grown in the presence of the corresponding concentration of DMSO. Experiments were repeated three times, each time with 4 replicates.

[3] = tested on: 2a HCV RNA replicon; test: 2a HCV RNA replicon assay (FL-J6/JFH-5'C19Rluc2AUbi, luciferase); assay type: cell-based, Hepatitis C Virus genotype 2a; conditions: Hepatitis C virus, read-out: 2a (%) Percent of virus activity remaining in the presence of the compound
From the text: Plasmids. Bart79I, a high-efficiency subgenomic replicon of HCV (28), harbors the neomycin resistance gene (neo) and the HCV nonstructural proteins. The Bart-Luciferase plasmid, Bart79I-luc, was cloned from the Bart791 parent (29) and the pGL3-Basic parent (Promega). In brief, a NotI site was introduced after the 15th amino acid of Core in Bart791 using PCR mutagenesis. The plasmid pcDNA3.1-NS4B, which encodes the Con1 NS4B sequence and was used to study the protein stability of the wild type and mutant NS4Bs, was described previously. To introduce the M2 mutation into the 4BAH2 of plasmids encoding HCV replicons or NS4B, the nucleotide sequence GCG that encodes for alanine at NS4B amino acid position 51 was changed to GAG (encoding for glutamate) and the nucleotide sequence TGG that encodes for tryptophan at amino acid position 55 was changed to GAT (encoding for aspartate) through the use of Quick-ChangeTMXL site-directed mutagenesis kit (Stratagene, La Jolla, Calif.) as described by the manufacturer and confirmed by sequencing. FL-J6/JFH-5′C19Rluc2AUbi, which is a monocistronic, full-length HCV genome that expresses Renilla luciferase (Rluc) and was derived from the previously described infectious genotype 2a HCV genome J6/JFH1.
Antiviral Assays of Compounds. Subconfluent Huh7.5 cells were trypsinized and collected by centrifugation at 700 g for 5 min. The cells were then washed three times in ice-cold RNasefree PBS buffer (BioWhittaker) and resuspended at 1.5×10^7 cells·ml^−1 in PBS buffer. Wild-type FL-J6/JFH-5′C19Rluc2AUbi and Bart79I-luc RNAs for electroporation were generated by in vitro transcription of XbaI (FL-J6/JFH-5′C19Rluc2AUbi) and ScaI (Bart791-luc)-linearized DNA templates using the T7 MEGAscript kit (Ambion), followed by phenol-chloroform purification and DEPC water suspension, 5 μg of RNA were mixed with 400 μl of washed Huh7.5 cells in a 2-mm-gap cuvette (BTX) and immediately pulsed (0.82 kV (FL-J6/JFH-5′C19Rluc2AUbi) and 0.68 kV (Bart79I-luc), five […] pulses) with a BTX-830 electroporator. After 10 min recovery at 25° C., pulsed cells were diluted into 20 ml of pre-warmed growth medium. Cells from several electroporations were pooled to a common stock and seeded in 96-well plates (17,000-20,000 cells per well). After 24 hr, compounds were added to the cells and media changes were performed daily with fresh compounds. After 72 hr of treatment, cells were incubated for 2 hr at 37° C. in the presence of 10% Alamar Blue reagent (TREK Diagnostic Systems) to assess for cytotoxicity. Plates were then scanned and fluorescence was detected by using a FLEXstation II 384 (Molecular Devices). The signal was normalized relative to untreated samples. Viral RNA replication was determined using Renilla (FL-J6/JFH-5′C19Rluc2AUbi) or firefly (Bart791-luc) luciferase assays, according to the manufacturer's (Promega) directions. The same samples subjected to the viability assay described below were analyzed in this assay. According to the manufacturer protocol, cells were washed with PBS buffer and shaken at room temperature for 15 min in 20 μl of lysis buffer. Reporter assays were performed directly in the wells of the culture plates by injecting 100 μl of the assay substrate into each well. Luminescence was measured over 10 seconds with a 2-second delay using a Berthold LB 96 V luminometer. Signal was normalized relative to untreated samples or samples grown in the presence of the corresponding concentration of DMSO. Experiments were repeated three times, each time with 4 replicates.

[4] = tested on: HCV 1b RNA replicon; test: 1b HCV RNA replicon assay, Huh7 cell line with stable luciferase reporter; assay type: cell-based, Hepatitis C Virus genotype 1b; conditions: Huh7, stable LUC reporter

Sequence of hERG (Q12809 whole entry): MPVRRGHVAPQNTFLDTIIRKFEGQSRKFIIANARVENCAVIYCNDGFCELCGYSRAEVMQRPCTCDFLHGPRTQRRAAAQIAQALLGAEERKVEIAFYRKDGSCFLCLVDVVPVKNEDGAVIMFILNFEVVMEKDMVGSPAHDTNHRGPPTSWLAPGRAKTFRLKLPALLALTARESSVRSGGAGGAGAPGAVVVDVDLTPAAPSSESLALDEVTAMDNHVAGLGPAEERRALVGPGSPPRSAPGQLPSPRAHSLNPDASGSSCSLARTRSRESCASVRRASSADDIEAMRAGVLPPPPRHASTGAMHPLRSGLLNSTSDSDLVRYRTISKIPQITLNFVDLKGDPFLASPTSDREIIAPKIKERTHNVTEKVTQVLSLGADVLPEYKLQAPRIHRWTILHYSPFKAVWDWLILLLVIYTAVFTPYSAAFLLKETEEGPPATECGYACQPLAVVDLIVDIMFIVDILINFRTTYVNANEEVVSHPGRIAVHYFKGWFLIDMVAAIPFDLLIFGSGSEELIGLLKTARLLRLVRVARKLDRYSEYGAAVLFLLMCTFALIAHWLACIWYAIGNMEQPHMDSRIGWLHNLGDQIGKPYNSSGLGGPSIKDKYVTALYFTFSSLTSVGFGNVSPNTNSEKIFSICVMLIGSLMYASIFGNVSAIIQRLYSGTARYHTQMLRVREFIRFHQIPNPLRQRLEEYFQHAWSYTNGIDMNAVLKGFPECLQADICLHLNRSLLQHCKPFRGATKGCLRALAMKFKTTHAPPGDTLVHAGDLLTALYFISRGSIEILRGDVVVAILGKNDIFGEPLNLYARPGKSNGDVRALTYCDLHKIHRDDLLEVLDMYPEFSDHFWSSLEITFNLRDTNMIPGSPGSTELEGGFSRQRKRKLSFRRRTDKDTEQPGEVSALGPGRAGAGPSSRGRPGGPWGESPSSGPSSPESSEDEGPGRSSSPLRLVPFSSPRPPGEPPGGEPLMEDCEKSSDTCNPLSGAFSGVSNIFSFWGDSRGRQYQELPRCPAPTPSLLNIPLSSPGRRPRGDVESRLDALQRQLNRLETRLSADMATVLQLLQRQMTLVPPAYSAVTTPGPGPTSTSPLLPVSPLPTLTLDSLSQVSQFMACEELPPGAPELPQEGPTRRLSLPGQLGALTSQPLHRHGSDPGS

`Cc1ccncc1NC(=O)c1nc(Cl)c(NCC(C)C)nc1N` [ID 464, 3-amino-6-chloro-5-(isobutylamino)-N-(4-methylpyridin-3-yl)pyrazine-2-carboxamide 2,2,2-trifluoroacetate] was tested, and the IC50 [1] was > 10 µM, the “Cell Viability (%), alamar blue” value ([2]; 5 μM) was 95% and the “Cell Viability (%), alamar blue” value ([2]; 10 μM) was 85%. For the same compound, the activity at 5 µM [3] was 64% and the activity at 10 µM [3] was 44%.

For `CC(C)CN(C)c1nc(N)c(C(=O)NC2CCCNC2)nc1Cl.O=C(O)C(F)(F)F` (centres unmarked) [ID 312, 3-amino-6-chloro-5-(isobutyl(methyl)amino)-N-(piperidin-3-yl)pyrazine-2-carboxamide 2,2,2-trifluoroacetate], the IC50 [1] was 4 µM, the “Cell Viability (%), alamar blue” value ([2]; 5 μM) was 76% and the “Cell Viability (%), alamar blue” value ([2]; 10 μM) was 53%. It also gave an IC50 ([4]; Hepatitis C virus, Huh-7) of 44 µM, an activity at 5 µM [3] of 21% and an activity at 10 µM [3] of 9%.

With `CC(C)CN(C)c1nc(N)c(C(=O)Nc2cccnc2)nc1Cl.Cl` [ID 202, 3-amino-6-chloro-5-(isobutyl(methyl)amino)-N-(pyridin-3-yl)pyrazine-2-carboxamide hydrochloride] the IC50 [1] was 1.5 µM, the “Cell Viability (%), alamar blue” value ([2]; 5 μM) was 48% and the “Cell Viability (%), alamar blue” value ([2]; 10 μM) was 43%. For the same compound, the activity at 5 µM [3] was 6% and the activity at 10 µM [3] was 4%.

With `Cc1ccncc1NC(=O)c1nc(Cl)c(N(C)c2ccccc2)nc1N` [ID 465, 3-amino-6-chloro-5-(methyl(phenyl)amino)-N-(4-methylpyridin-3-yl)pyrazine-2-carboxamide 2,2,2-trifluoroacetate] the IC50 [1] was > 10 µM, the “Cell Viability (%), alamar blue” value ([2]; 5 μM) was 89% and the “Cell Viability (%), alamar blue” value ([2]; 10 μM) was 78%. For the same compound, the activity at 5 µM [3] was 60% and the activity at 10 µM [3] was 31%.

With `CC(C)CN(C)c1nc(N)c(C(=O)NCC2CCCCC2)nc1Cl.O=C(O)C(F)(F)F` [ID 320, 3-amino-6-chloro-N-(cyclohexylmethyl)-5-(isobutyl(methyl)amino)pyrazine-2-carboxamide 2,2,2-trifluoroacetate] the “Cell Viability (%), alamar blue” value ([2]; 5 μM) was 80%, the “Cell Viability (%), alamar blue” value ([2]; 10 μM) was 59% and the “1b assay IC50” value [4] was “inactive”. For the same compound, the activity at 5 µM [3] was 37% and the activity at 10 µM [3] was 17%.
